Test results: the METLIN SMRT retention time set (Domingo-Almenara et al. 2019)

Test: gradient 5% acetonitrile 3 min, to 50% in 2 min, to 85% in 15 min, held 3 min, 100 µL/min
Conditions: column: Zorbax Extend-C18 2.1 x 50 mm; eluents: water / acetonitrile, 0.1% formic acid
How it was run: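 Mixtures of ~100 pure standards were chromatographed on a Zorbax Extend-C18 column (2.1 × 50 mm, 1.8 μm) at 100 μL/min using water and acetonitrile, each with 0.1% formic acid. Detection used a quadrupole time-of-flight mass spectrometer in positive and negative ionization mode, and data collection spanned 3 months. Retention time was obtained from adduct peaks picked computationally and each checked manually.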

Structure (SMILES)	RP-LC retention time
CN(C)S(=O)(=O)c1ccc(-c2nc3ccccc3s2)cc1	578 s
CCC(C(=O)Nc1c(-c2ccccc2)nc2cc(C)ccn12)c1ccccc1 (centres undefined)	939 s
CCOc1cc(=O)n2c(c1C(=O)NC1CC1)CCCCC2	611 s
CCOc1nc2ccccc2nc1N1CCCC(C(=O)N2CCc3ccccc3C2)C1 (centres undefined)	1310 s
Cc1ccn2c(NC(=O)COc3ccc(Cl)cc3Cl)c(-c3ccccc3)nc2c1	799 s
CC(C)n1c(N2CCN(C(=O)Cc3ccc(F)cc3)CC2)cc(=O)n(C(C)C)c1=O	818 s
Cc1noc([C@@H]2CN(C(=O)c3cscn3)C[C@H]2C(N)=O)n1	556 s
Cc1ccc(-c2cc(C(=O)NCc3ccc4c(c3)OCO4)ccn2)s1	902 s
Cc1ccccc1NS(=O)(=O)c1cc(-c2nc(C(C)(C)C)cs2)cs1	1260 s
Cc1nnc2ccc(N3CCN(C(=O)CSc4nc5ccccc5s4)CC3)nn12	652 s
NC(=O)Cc1csc(SCC(=O)c2ccc3c(c2)OCO3)n1	648 s
Cc1ccc(-n2c(=O)c3sccc3n(Cc3nc(-c4ccccc4)no3)c2=O)cc1	985 s
CCOC(=O)c1cc(C)nc2c1c(=O)n(Cc1ccccc1F)c(=O)n2C	1070 s
COc1ccc(-c2nc(-c3cn(Cc4cccc(F)c4)nn3)no2)c(OC)c1	934 s
CCOC(=O)c1ccc(NC(=O)CC2Sc3ncnn3C2=O)cc1 (centres undefined)	642 s
Cc1ccc(-c2nc(-c3ccc4c(c3)nc(C)c(=O)n4C)no2)c(C)c1	1220 s
CCc1cccc(NC(=O)N2CCCC2c2nc(-c3ccccc3OC)no2)c1 (centres undefined)	970 s
O=C(CC1CCCC1)NCCn1c(=O)n(Cc2ccc(F)cc2)c2cccnc21	814 s
CCc1nnc2nc(N3CCN(C(=O)c4ccccc4)CC3)cc(C)n12	597 s
COCC(=O)N(C1CCOCC1)C1CCN(C(=O)Cc2ccc(Cl)cc2)CC1	618 s
CCNC(=O)CCCN1C(=O)CCn2nc(-c3cn(C)c4ccccc34)cc21	695 s
O=C(NCc1ccc2c(c1)OCO2)C1CCCN(c2nnc3c(Cl)cccn23)C1 (centres undefined)	701 s
c1ccc(Cn2cc(-c3noc(-c4ccccc4)n3)nn2)cc1	814 s

Structure (SMILES)	RP-LC retention time
Cc1nn(-c2ccc(Cl)cc2)c(C)c1S(=O)(=O)N1CCC(C(=O)NCC2CCCO2)CC1 (centres undefined)	843 s
O=C(Cn1ncc2c3ccccc3n(Cc3ccccc3F)c2c1=O)N1CCN(c2ccccn2)CC1	699 s
CC(C)(C)c1ccc(-c2nc3ccccc3[nH]2)cc1	702 s
O=C1NC2(CCN(C(=O)c3ccccc3)CC2)N=C1c1cccc(Cl)c1	869 s
Cc1ccc2c(c1)OCC(=O)N2Cc1nc(-c2ccc(Br)cc2)no1	1180 s
CNC(=O)N1Cc2ccccc2OC2(CCN(C(C)C)CC2)C1	592 s
CCc1noc(-c2cccnc2N2CCCN(Cc3c(F)cccc3Cl)CC2)n1	668 s
COCc1cc(=O)n(CC(=O)Nc2ccc(F)cc2)c(N)n1	585 s
COc1ccc(-c2nc3ccc(Br)cn3c2Nc2ccc(C)cc2)cc1	847 s
CC(=O)Nc1nc2c(s1)CN(CC(=O)Nc1ccc(F)c(Cl)c1)CC2	573 s
Oc1ccc(C2NCCc3c2[nH]c2ccc(Cl)cc32)cc1O (centres undefined)	620 s
COC(=O)c1cc(C)nc2c1c(=O)n(Cc1ccc(Cl)cc1)c(=O)n2C	1080 s
Cc1c(-c2noc(C(=O)N3CCc4ccccc4C3)n2)oc2c(C)cccc12	1280 s
COc1nn(C)cc1C(=O)Nc1nc(-c2cc(Cl)sc2Cl)cs1	1210 s
CSc1ccc(-c2nc3ccccn3c2Nc2ccc3c(c2)OCCO3)cc1	712 s
O=C(Nc1nnc(C2CCCCC2)o1)c1c[nH]c2ccccc12	714 s
Cc1ccc(CNc2c(-c3ccc(F)c(F)c3)nc3ncccn23)cc1	890 s
CCCN1CCn2cc(S(=O)(=O)Nc3ccc(OC)c(Cl)c3)cc2C1=O	770 s
O=C(NCc1ccc2c(c1)OCO2)c1c(O)c2cccnc2[nH]c1=O	889 s
COc1ccc(COC(=O)C2=CN(Cc3ccc(OC)cc3)S(=O)(=O)N=C2C)cc1	923 s
CC(=O)Nc1nc(-c2ccc3c(c2)NC(=O)C(C)O3)c(C)s1 (centres undefined)	701 s
O=C(c1ccco1)N1CCN(c2ccc(=O)n(-c3ccc(Cl)cc3)n2)CC1	768 s
CCC(C(=O)Nc1ccc(-c2cn3ccc(C)nc3n2)cc1)c1ccccc1 (centres undefined)	705 s

Structure (SMILES)	RP-LC retention time
O=C(NCc1ccccn1)c1cc(-c2cccnc2)nc2ccc(Cl)cc12	642 s
CCc1nc(-c2csc(S(=O)(=O)N3CCCC(C(=O)Nc4cccc(Cl)c4)C3)c2)no1 (centres undefined)	1040 s
CNC(=O)C1CN(C(=O)c2cccc(C(F)(F)F)c2)CC12CCCC2 (centres undefined)	749 s
CCCNc1cc(N2CCCC(CCC(=O)NC(C)C)C2)ncn1 (centres undefined)	616 s
Cc1ccccc1NC(=O)C1CCN(c2nc(C3CCC3)nc3csc(C)c23)CC1	757 s
O=C(Nc1ccc(Cl)cc1)Nc1c(-c2ccncc2)nc2ccccn12	631 s
Cn1c(C(=O)NCCc2c[nH]c3ccccc23)cc2c(-c3cccs3)nn(-c3ccccc3)c21	969 s
O=C(CCn1nnc2cc(-c3noc(COc4ccc(F)cc4)n3)ccc21)N1CCOCC1	823 s
COc1ccc(C2CC(=O)N(c3cc(C)cc(C)c3)C(=O)C2)cc1OC	891 s
CCN1C(=O)C(C)(C)COc2cc(NC(=O)Nc3ccccc3C(F)(F)F)ccc21	943 s
O=C1CCCN1CCCN(CC(=O)N1CCNCC1)C(=O)c1cccc(Cl)c1	586 s
COc1ccc(CN2C[C@@H](CO)[C@H](c3ccncc3)C2)cc1C	542 s
CCOCC(=O)N1CCCN(C2=NS(=O)(=O)C(c3ccc(F)cc3)=C2C)CC1	711 s
CCn1cc(S(=O)(=O)Nc2cc(Cl)ccc2OC)c2cccnc21	908 s
O=C(NC1CCCCCCC1)C1CCN(S(=O)(=O)c2cc(C(=O)N3CCCC3)cs2)CC1	902 s
CCCc1cc(C2CCCN2C(=O)NCc2ccc(F)cc2)no1 (centres undefined)	873 s
O=C(C1CCN(S(=O)(=O)c2cc(-c3noc(C4CCC4)n3)cs2)CC1)N1CCCC1	911 s
CC1CCN(c2ccc(-c3noc(CN4C(=O)COc5ccccc54)n3)cc2)CC1	1260 s
N#Cc1cc(-c2ccccc2)[nH]c1-c1nccc2ccccc12	981 s
COc1cc2c(cc1OC)C(C(=O)NCc1cccnc1)C(c1ccc(SC)cc1)N(C)C2=O (centres undefined)	630 s
O=C(Nc1nc(-c2ccccn2)cs1)c1ccc(N2CCOCC2)c([N+](=O)[O-])c1	631 s
O=[N+]([O-])c1cccc(S(=O)(=O)Nc2ccc(O)c(-c3c(O)ccc4ccccc34)c2)c1	801 s
Cc1ccc(NS(=O)(=O)c2cn(CC(C)C)c3ncccc23)c(F)c1	986 s

Structure (SMILES)	RP-LC retention time
O=C1NCCCn2cc(S(=O)(=O)Nc3ccc(F)c(F)c3)cc21	676 s
O=C(NC1CCN(c2nnc3ccc(Cl)cn23)CC1)c1cccnc1	567 s
O=C(CCNc1c(-c2ccc(F)cc2)nc2cnccn12)Nc1ccc2c(c1)OCO2	727 s
Cc1ccc(N2CC(C(=O)Nc3ccc4c(c3)C(=O)N3CCCCC3CCO4)CC2=O)cc1 (centres undefined)	762 s
O=C(NC(=O)c1c(Cl)nc2sccn12)Nc1ccc(Cl)cc1	977 s
Cc1nc(CCNC(=O)C(C)(C)C)no1	619 s
Cc1noc(C)c1CC(=O)N1CC(F)(F)C[C@H]1COc1ccc2c(c1)CCC2	1060 s
CCNC(=O)c1sc2nc(-c3cccc(F)c3)c(NCCCOC)n2c1C	844 s
O=C(Nc1ccc(C(=O)NCCCN2CCN(C3CCCCC3)CC2)cc1)C1=CSCCO1	579 s
CN(C)c1ncncc1N1CCC(C(=O)N2CCN(c3ccc(Cl)cc3)CC2)CC1	692 s
CCc1ccc(CNC(=O)Cn2c(C)cc(-c3nnc(C4CCC4)o3)c2C)cc1	965 s
O=C(Cn1nc2c(Oc3cccc(F)c3)nccn2c1=O)Nc1ccccc1F	815 s
CCCCNC(=O)Cn1c(=O)c2cnc(-c3ccc(Cl)cc3)nc2n(C)c1=O	982 s
CCC(=O)N1c2ccc(S(=O)(=O)N3CCCCC3)cc2CC1C(=O)NC1CCCC1 (centres undefined)	883 s
O=C(CSc1nnc(-c2ccc3c(c2)OCCCO3)n1C1CC1)N1CCCC1	710 s
O=C(NCC1CC(=O)N(Cc2ccccc2)C1)c1cccc(Cl)c1 (centres undefined)	727 s
CCN1C(=O)COc2ccc(-c3noc(C(C)Oc4ccccc4)n3)cc21 (centres undefined)	1090 s
O=C(NCCCN1CCCCCC1)c1nnc(-c2ccc(S(=O)(=O)N3CCCC3)cc2)o1	648 s
CCc1nnc(-c2cc(C)n(CC(=O)Nc3ccc(OC)cc3)c2C)o1	753 s
CCOC(=O)c1ccc(N2C=C(C(=O)OC)S(=O)(=O)c3ccc(F)cc32)cc1	933 s
